Measurements published in US20250311727A1, “SUBSTITUTED 2-AMINOAZINES AND SALTS THEREOF, AND USE THEREOF AS HERBICIDAL ACTIVE SUBSTANCES” (BAYER AKTIENGESELLSCHAFT, priority 2022, published 2025).

How the values were obtained:
Type in all cases: in vivo
Veronica persica [1] = assay: Post-emergence herbicidal efficacy at 80 g/ha, VERPE; settings: rated visually after about 3 weeks vs untreated controls, 100% = plants have died
In short: (§1)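 Greenhouse post-emergence spray, one-leaf stage (2–3 wk after sowing, sandy loam). Cpd as WP/EC, aqueous + 0.5% additive, 600 l/ha water. Visual rating ~3 wk post-treatment vs untreated; 0% = as control, 100% = plants dead.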

Viola tricolor = assay: Pre-emergence herbicide efficacy at 80 g/ha, VIOTR
In short: (§2)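 Visual scoring after about 3 weeks in the greenhouse, expressed as percent activity against untreated controls, where 100% means dead plants and 0% means no difference. Treatment was applied pre-emergence to the covering soil over sown seeds, as WP or EC in water with 0.5% additive, 600 l/ha.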

Setaria viridis [2] = assay: Pre-emergence herbicide efficacy at 80 g/ha, SETVI
In short: as §2

Digitaria sanguinalis [3] = assay: Pre-emergence herbicide efficacy at 320 g/ha, DIGSA; settings: scored visually after about 3 weeks vs untreated controls, 100% = plants have died
In short: (§3)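 Sandy loam pots, seeds covered with soil; WP/EC formulation applied to soil surface, 0.5% additive, 600 L/ha water. Greenhouse ~3 weeks. Visual % damage vs untreated (0% = like control, 100% = dead).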

Abutilon theophrasti [4] = assay: Post-emergence herbicidal efficacy at 320 g/ha, ABUTH; settings: rated visually after about 3 weeks vs untreated controls, 100% = plants have died
In short: (§4)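 Visual % activity vs untreated controls, ~3 wk after spraying; 100% = plants dead, 0% = like control. Greenhouse pot plants in sandy loam, treated at one-leaf stage (2–3 wk post-sowing). WP/EC in water + 0.5% additive, 600 L/ha spray volume.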

Poa annua [5] = assay: Pre-emergence herbicide efficacy at 320 g/ha, POAAN; settings: scored visually after about 3 weeks vs untreated controls, 100% = plants have died
In short: as §3

Digitaria sanguinalis [6] = assay: Post-emergence herbicidal efficacy at 320 g/ha, DIGSA; settings: rated visually after about 3 weeks vs untreated controls, 100% = plants have died
In short: as §4

Setaria viridis [7] = assay: Pre-emergence herbicide efficacy at 320 g/ha, SETVI; settings: scored visually after about 3 weeks vs untreated controls, 100% = plants have died
In short: as §3

Polygonum convolvulus [8] = assay: Pre-emergence herbicide efficacy at 80 g/ha, POLCO; settings: scored visually after about 3 weeks vs untreated controls, 100% = plants have died
In short: as §2

Stellaria media [9] = assay: Pre-emergence herbicide efficacy at 320 g/ha, STEME; settings: scored visually after about 3 weeks vs untreated controls, 100% = plants have died
In short: as §3

Amaranthus retroflexus [10] = assay: Pre-emergence herbicide efficacy at 80 g/ha, AMARE; settings: scored visually after about 3 weeks vs untreated controls, 100% = plants have died
In short: as §2

Kochia scoparia [11] = assay: Post-emergence herbicidal efficacy at 320 g/ha, KCHSC; settings: rated visually after about 3 weeks vs untreated controls, 100% = plants have died
In short: as §4

Alopecurus myosuroides [12] = assay: Post-emergence herbicidal efficacy at 320 g/ha, ALOMY; settings: rated visually after about 3 weeks vs untreated controls, 100% = plants have died
Text: (§5) Unwanted plants/weeds: • ABUTH: Abutilon theophrasti • ALOMY: Alopecurus myosuroides • AMARE: Amaranthus retroflexus • DIGSA: Digitaria sanguinalis • ECHCG: Echinochloa crus-galli • KCHSC: Kochia scoparia • LOLRI: Lolium rigidum • MATIN: Matricaria inodora • POAAN: Poa annua • POLCO: Polygonum convolvulus • SETVI: Setaria viridis • STEME: Stellaria media • VERPE: Veronica persica • VIOTR: Viola tricolor A. Post-Emergence Herbicidal Efficacy at 320 g/ha
Seeds of mono- and dicotyledonous weed plants were placed in plastic pots in sandy loam soil (doubly sown with in each case one species of mono- or dicotyledonous weed plants per pot), covered with soil and cultivated in a greenhouse under controlled growth conditions. 2 to 3 weeks after sowing, the test plants were treated at the one-leaf stage. The compounds of the invention, formulated in the form of wettable powders (WP) or as emulsion concentrates (EC), were applied to the green parts of the plants as aqueous suspension or emulsion with addition of 0.5% additive at a water application rate equivalent to 600 litres per hectare. After the test plants had been kept in the greenhouse under optimum growth conditions for about 3 weeks, the activity of the preparations was rated visually in comparison to untreated controls.
For example, 100% activity=the plants have died, 0% activity=like control plants.
Tables A1 to A10 below show the effects of selected compounds of the general formula (I) according to Table 1 on various harmful plants and at an application rate corresponding to 320 g/ha, which were obtained by the trial procedure specified above.

Poa annua [13] = assay: Post-emergence herbicidal efficacy at 320 g/ha, POAAN; settings: rated visually after about 3 weeks vs untreated controls, 100% = plants have died
In short: as §4

Stellaria media [14] = assay: Post-emergence herbicidal efficacy at 320 g/ha, STEME; settings: rated visually after about 3 weeks vs untreated controls, 100% = plants have died
In short: as §4

Amaranthus retroflexus [15] = assay: Post-emergence herbicidal efficacy at 80 g/ha, AMARE; settings: rated visually after about 3 weeks vs untreated controls, 100% = plants have died
In short: as §1

PHBPU = assay: Post-emergence herbicidal efficacy at 80 g/ha, PHBPU; settings: rated visually after about 3 weeks vs untreated controls, 100% = plants have died
Method: (§6) Seeds of monocotyledonous and dicotyledonous weeds and crop plants were placed in sandy loam in plastic or organic planting pots, covered with soil and cultivated in a greenhouse under controlled growth conditions. 2 to 3 weeks after sowing, the test plants were treated at the one-leaf stage. The compounds of the invention, formulated in the form of wettable powders (WP) or as emulsion concentrates (EC), were then sprayed onto the green parts of the plants as aqueous suspension or emulsion with addition of 0.5% additive at a water application rate of 600 l/ha (converted). After the test plants had been kept in the greenhouse under optimum growth conditions for about 3 weeks, the activity of the preparations was rated visually in comparison to untreated controls. For example, 100% activity=the plants have died, 0% activity=like control plants. Tables B1 to B11 below show the effects of selected compounds of the general formula (I) according to Table 1 on various harmful plants and an application rate corresponding to 80 g/ha, which were obtained by the experimental procedure mentioned above.

Veronica persica [16] = assay: Pre-emergence herbicide efficacy at 80 g/ha, VERPE
In short: as §2

Veronica persica [17] = assay: Post-emergence herbicidal efficacy at 320 g/ha, VERPE; settings: rated visually after about 3 weeks vs untreated controls, 100% = plants have died
In short: as §4

Alopecurus myosuroides [18] = assay: Post-emergence herbicidal efficacy at 80 g/ha, ALOMY; settings: rated visually after about 3 weeks vs untreated controls, 100% = plants have died
Text: as §5
as §6, with “plants.” for “plants. Tables B1 to B11 below show the effects of selected compounds of the general formula (I) according to Table 1 on various harmful plants and an application rate corresponding to 80 g/ha, which were obtained by the experimental procedure mentioned above.”
(§7) Tables B1 to B11 below show the effects of selected compounds of the general formula (I) according to Table 1 on various harmful plants and an application rate corresponding to 80 g/ha, which were obtained by the experimental procedure mentioned above.

Abutilon theophrasti [19] = assay: Pre-emergence herbicide efficacy at 320 g/ha, ABUTH; settings: scored visually after about 3 weeks vs untreated controls, 100% = plants have died
In short: as §3

Polygonum convolvulus [20] = assay: Post-emergence herbicidal efficacy at 80 g/ha, POLCO; settings: rated visually after about 3 weeks vs untreated controls, 100% = plants have died
Text: as §5
as §6, with “Tables B1 to B11 below show the effects of selected compounds of the general formula (I) according to Table 1 on various harmful plants and an application rate corresponding to 80 g/ha, which were obtained by the experimental procedure mentioned above.” left out

Veronica persica [21] = assay: Pre-emergence herbicide efficacy at 320 g/ha, VERPE; settings: scored visually after about 3 weeks vs untreated controls, 100% = plants have died
In short: as §3

Kochia scoparia [22] = assay: Pre-emergence herbicide efficacy at 320 g/ha, KCHSC; settings: scored visually after about 3 weeks vs untreated controls, 100% = plants have died
In short: as §3

Amaranthus retroflexus [23] = assay: Pre-emergence herbicide efficacy at 320 g/ha, AMARE; settings: scored visually after about 3 weeks vs untreated controls, 100% = plants have died
In short: as §3

Abutilon theophrasti [24] = assay: Post-emergence herbicidal efficacy at 80 g/ha, ABUTH; settings: rated visually after about 3 weeks vs untreated controls, 100% = plants have died
Text: as §5
as §6, with “plants.” for “plants. Tables B1 to B11 below show the effects of selected compounds of the general formula (I) according to Table 1 on various harmful plants and an application rate corresponding to 80 g/ha, which were obtained by the experimental procedure mentioned above.”
as §7

Amaranthus retroflexus [25] = assay: Post-emergence herbicidal efficacy at 320 g/ha, AMARE; settings: rated visually after about 3 weeks vs untreated controls, 100% = plants have died
In short: as §4

FC(F)c1cc(-c2ccccc2Nc2ncc(Cl)cn2)on1 [Example 1-31]
100%: Pre-emergence efficacy against SETVI (Setaria viridis [2]) | Pre-emergence efficacy at 320 g/ha against DIGSA in % (Digitaria sanguinalis [3]) | Post-emergence efficacy at 320 g/ha against ABUTH in % (Abutilon theophrasti [4]) | Pre-emergence efficacy at 320 g/ha against POAAN in % (Poa annua [5]) | Post-emergence efficacy at 320 g/ha against DIGSA in % (Digitaria sanguinalis [6]) | Pre-emergence efficacy at 320 g/ha against SETVI in % (Setaria viridis [7]) | Pre-emergence efficacy at 320 g/ha against STEME in % (Stellaria media [9]) | Pre-emergence efficacy at 80 g/ha against AMARE in % (Amaranthus retroflexus [10]) | Post-emergence efficacy at 320 g/ha against KCHSC in % (Kochia scoparia [11]) | Post-emergence efficacy at 320 g/ha against ALOMY in % (Alopecurus myosuroides [12]) | Post-emergence efficacy at 320 g/ha against POAAN in % (Poa annua [13]) | Post-emergence efficacy at 320 g/ha against STEME in % (Stellaria media [14]) | Post-emergence efficacy at 320 g/ha against VERPE in % (Veronica persica [17]) | Post-emergence efficacy at 80 g/ha against POLCO in % (Polygonum convolvulus [20]) | Pre-emergence efficacy at 320 g/ha against VERPE in % (Veronica persica [21]) | Pre-emergence efficacy at 320 g/ha against AMARE in % (Amaranthus retroflexus [23]) | Post-emergence efficacy at 320 g/ha against AMARE in % (Amaranthus retroflexus [25])
90%: Post-emergence efficacy at 80 g/ha against VERPE in % (Veronica persica [1]) | Pre-emergence efficacy against VIOTR (Viola tricolor) | Post-emergence efficacy at 80 g/ha against AMARE in % (Amaranthus retroflexus [15]) | Pre-emergence efficacy against VERPE (Veronica persica [16]) | Pre-emergence efficacy at 320 g/ha against ABUTH in % (Abutilon theophrasti [19]) | Pre-emergence efficacy at 320 g/ha against KCHSC in % (Kochia scoparia [22])
80%: Pre-emergence efficacy at 80 g/ha against POLCO in % (Polygonum convolvulus [8]) | Post-emergence efficacy at 80 g/ha against PHBPU in % (PHBPU) | Post-emergence efficacy at 80 g/ha against ALOMY in % (Alopecurus myosuroides [18]) | Post-emergence efficacy at 80 g/ha against ABUTH in % (Abutilon theophrasti [24])
